From BindingDB's records for doi:10.1021/acs.jnatprod.6b00597 (Chang Gung Memorial Hospital, 2016)
pIC50: −log10 of the molar value.

Legend:
[1] = Inhibition of human ABCB1 expressed in NCI-ADR-RES cells assessed as potentiation of vincristine-induced cytotoxicity by measuring vincristine IC50 at 500 nM after 72 hrs by MTT assay (Rvb = 3714.80 +/- 383.58 nM)
[2] = Inhibition of human ABCB1 expressed in NCI-ADR-RES cells assessed as potentiation of vincristine-induced cytotoxicity by measuring vincristine IC50 at 200 nM after 72 hrs by MTT assay (Rvb = 3714.80 +/- 383.58 nM)
[3] = Inhibition of human ABCB1 expressed in KBV1 cells assessed as potentiation of doxorubicin-induced cytotoxicity by measuring doxorubicin IC50 at 100 nM after 72 hrs by MTT assay (Rvb = 5.07 +/- 0.19 uM)
[4] = Inhibition of human ABCB1 expressed in KBV1 cells assessed as potentiation of vincristine-induced cytotoxicity by measuring vincristine IC50 at 200 nM after 72 hrs by MTT assay (Rvb = 277.68 +/- 56.61 nM)
[5] = Inhibition of human ABCB1 expressed in NCI-ADR-RES cells assessed as potentiation of vincristine-induced cytotoxicity by measuring vincristine IC50 at 50 nM after 72 hrs by MTT assay (Rvb = 3714.80 +/- 383.58 nM)
[6] = Inhibition of human ABCB1 expressed in KBV1 cells assessed as potentiation of doxorubicin-induced cytotoxicity by measuring doxorubicin IC50 at 200 nM after 72 hrs by MTT assay (Rvb = 5.07 +/- 0.19 uM)
[7] = Inhibition of human ABCB1 expressed in KBV1 cells assessed as potentiation of vincristine-induced cytotoxicity by measuring vincristine IC50 at 500 nM after 72 hrs by MTT assay (Rvb = 277.68 +/- 56.61 nM)
[8] = Inhibition of human ABCB1 expressed in NCI-ADR-RES cells assessed as potentiation of doxorubicin-induced cytotoxicity by measuring doxorubicin IC50 at 100 nM after 72 hrs by MTT assay (Rvb = 5.54 +/- 0.60 uM)
[9] = Inhibition of human ABCB1 expressed in NCI-ADR-RES cells assessed as potentiation of doxorubicin-induced cytotoxicity by measuring doxorubicin IC50 at 50 nM after 72 hrs by MTT assay (Rvb = 5.54 +/- 0.60 uM)
[10] = Inhibition of human ABCB1 expressed in NCI-ADR-RES cells assessed as potentiation of colchicine-induced cytotoxicity by measuring colchicine IC50 at 50 nM after 72 hrs by MTT assay (Rvb = 1607.50 +/- 497.42 nM)
[11] = Inhibition of human ABCB1 expressed in KBV1 cells assessed as potentiation of doxorubicin-induced cytotoxicity by measuring doxorubicin IC50 at 500 nM after 72 hrs by MTT assay (Rvb = 5.07 +/- 0.19 uM)
[12] = Inhibition of human ABCB1 expressed in KBV1 cells assessed as potentiation of colchicine-induced cytotoxicity by measuring colchicine IC50 at 200 nM after 72 hrs by MTT assay (Rvb = 487.57 +/- 30.54 nM)
[13] = Inhibition of human ABCC1 transfected in HEK293 cells assessed as potentiation of etoposide-induced cytotoxicity by measuring etoposide IC50 at 500 nM after 72 hrs by CCK8 assay (Rvb = 38.54 +/- 5.62 nM)
[14] = Inhibition of human ABCB1 expressed in NCI-ADR-RES cells assessed as potentiation of doxorubicin-induced cytotoxicity by measuring doxorubicin IC50 at 200 nM after 72 hrs by MTT assay (Rvb = 5.54 +/- 0.60 uM)
[15] = Inhibition of human ABCB1 expressed in NCI-ADR-RES cells assessed as potentiation of colchicine-induced cytotoxicity by measuring colchicine IC50 at 500 nM after 72 hrs by MTT assay (Rvb = 1607.50 +/- 497.42 nM)
[16] = Inhibition of human ABCB1 expressed in KBV1 cells assessed as potentiation of colchicine-induced cytotoxicity by measuring colchicine IC50 at 500 nM after 72 hrs by MTT assay (Rvb = 487.57 +/- 30.54 nM)
[17] = Inhibition of human ABCB1 expressed in NCI-ADR-RES cells assessed as potentiation of colchicine-induced cytotoxicity by measuring colchicine IC50 at 100 nM after 72 hrs by MTT assay (Rvb = 1607.50 +/- 497.42 nM)
[18] = Inhibition of human ABCB1 expressed in KBV1 cells assessed as potentiation of colchicine-induced cytotoxicity by measuring colchicine IC50 at 100 nM after 72 hrs by MTT assay (Rvb = 487.57 +/- 30.54 nM)
[19] = Inhibition of human ABCB1 transfected in HEK293 cells assessed as potentiation of doxorubicin-induced cytotoxicity by measuring doxorubicin IC50 at 50 nM after 72 hrs by CCK8 assay (Rvb = 504.65 +/- 44.94 nM)
[20] = Inhibition of human ABCB1 expressed in NCI-ADR-RES cells assessed as potentiation of vincristine-induced cytotoxicity by measuring vincristine IC50 at 100 nM after 72 hrs by MTT assay (Rvb = 3714.80 +/- 383.58 nM)
[21] = Inhibition of human ABCB1 expressed in NCI-ADR-RES cells assessed as potentiation of doxorubicin-induced cytotoxicity by measuring doxorubicin IC50 at 500 nM after 72 hrs by MTT assay (Rvb = 5.54 +/- 0.60 uM)
[22] = Inhibition of human ABCB1 expressed in NCI-ADR-RES cells assessed as potentiation of colchicine-induced cytotoxicity by measuring colchicine IC50 at 200 nM after 72 hrs by MTT assay (Rvb = 1607.50 +/- 497.42 nM)
[23] = Inhibition of human ABCB1 expressed in KBV1 cells assessed as potentiation of vincristine-induced cytotoxicity by measuring vincristine IC50 at 50 nM after 72 hrs by MTT assay (Rvb = 277.68 +/- 56.61 nM)
[24] = Inhibition of human ABCB1 transfected in HEK293 cells assessed as potentiation of doxorubicin-induced cytotoxicity by measuring doxorubicin IC50 at 100 nM after 72 hrs by CCK8 assay (Rvb = 504.65 +/- 44.94 nM)
[25] = Inhibition of human ABCB1 expressed in KBV1 cells assessed as potentiation of doxorubicin-induced cytotoxicity by measuring doxorubicin IC50 at 50 nM after 72 hrs by MTT assay (Rvb = 5.07 +/- 0.19 uM)
[26] = Inhibition of human ABCB1 expressed in KBV1 cells assessed as potentiation of vincristine-induced cytotoxicity by measuring vincristine IC50 at 100 nM after 72 hrs by MTT assay (Rvb = 277.68 +/- 56.61 nM)
[27] = Inhibition of human ABCB1 transfected in HEK293 cells assessed as potentiation of doxorubicin-induced cytotoxicity by measuring doxorubicin IC50 at 200 nM after 72 hrs by CCK8 assay (Rvb = 504.65 +/- 44.94 nM)
[28] = Inhibition of human ABCB1 expressed in KBV1 cells assessed as potentiation of doxorubicin-induced cytotoxicity by measuring doxorubicin IC50 at 1000 nM after 72 hrs by MTT assay (Rvb = 5.07 +/- 0.19 uM)
[29] = Inhibition of human ABCB1 expressed in NCI-ADR-RES cells assessed as potentiation of doxorubicin-induced cytotoxicity by measuring doxorubicin IC50 at 1000 nM after 72 hrs by MTT assay (Rvb = 5.54 +/- 0.60 uM)
[30] = Inhibition of human ABCB1 expressed in KBV1 cells assessed as potentiation of vincristine-induced cytotoxicity by measuring vincristine IC50 at 1000 nM after 72 hrs by MTT assay (Rvb = 277.68 +/- 56.61 nM)
[31] = Inhibition of human ABCB1 transfected in HEK293 cells assessed as potentiation of doxorubicin-induced cytotoxicity by measuring doxorubicin IC50 at 1000 nM after 72 hrs by CCK8 assay (Rvb = 504.65 +/- 44.94 nM)
[32] = Inhibition of human ABCB1 expressed in NCI-ADR-RES cells assessed as potentiation of colchicine-induced cytotoxicity by measuring colchicine IC50 at 1000 nM after 72 hrs by MTT assay (Rvb = 1607.50 +/- 497.42 nM)
[33] = Inhibition of human ABCB1 expressed in NCI-ADR-RES cells assessed as potentiation of vincristine-induced cytotoxicity by measuring vincristine IC50 at 1000 nM after 72 hrs by MTT assay (Rvb = 3714.80 +/- 383.58 nM)

COc1ccc2cc1Oc1ccc(cc1)C[C@H]1c3cc(c(OC)cc3CCN1C)Oc1c(OC)c(OC)c(OC)c3c1[C@H](C2)N(C)CC3 [CHEBI:5677]
pIC50 [1]: 6.94
pIC50 [2]: 6.01
pIC50 [3]: 6.15
pIC50 [4]: 7.68
pIC50 [5]: 5.49
pIC50 [6]: 6.55
pIC50 [7]: 8.80
pIC50 [8]: 5.88
pIC50 [9]: 5.55
pIC50 [10]: 6.00
pIC50 [11]: 7.00
pIC50 [12]: 6.93
pIC50 [13]: 4.42
pIC50 [14]: 6.26
pIC50 [15]: 7.10
pIC50 [16]: 7.49
pIC50 [17]: 6.24
pIC50 [18]: 6.73
pIC50 [19]: 6.96
pIC50 [20]: 5.57
pIC50 [21]: 6.64
pIC50 [22]: 6.65
pIC50 [23]: 6.69
pIC50 [24]: 7.12
pIC50 [25]: 5.85
pIC50 [26]: 7.00
pIC50 [27]: 7.36

COc1cc2c(cc1OC)CN(CCc1ccc(NC(=O)c3cc(OC)c(OC)cc3NC(=O)c3cnc4ccccc4c3)cc1)CC2
pIC50 [28]: 7.15
pIC50 [29]: 6.62
pIC50 [30]: 9.18
pIC50 [31]: 7.60
pIC50 [32]: 7.60
pIC50 [33]: 7.72
